According to patent publication US20230398126A1 (priority 2022, published 2023):
pEC50: −log10 of the molar value.

How the values were obtained:
MP12 virus = assay: microbe, parasite or virus in culture; assay type: cell-based; conditions: Rift Valley fever virus, Vero C1008
in vitro = conditions: African green monkey
virulent RVFVs = conditions: cited from earlier work
[1] = test system: MP12 vaccine and its divergents; conditions: cited from earlier work

Cc1cc(C)c(C)c(S(=O)(=O)N2CCC(c3c[nH]c4c(C)cccc34)CC2)c1C [WMA-RV5]
pEC50 (MP12 virus): 5.04 | CC50 (in vitro): > 1280 µM

CN1C(=O)c2cccnc2Sc2cc(C(=O)Nc3ccc(Cl)cc3)ccc21 [WMA-RV1]
pEC50 (MP12 virus): 6.06 | CC50 (in vitro): 320 µM

NC(=O)c1ncn([C@@H]2O[C@H](CO)[C@@H](O)[C@H]2O)n1 [Ribavirin]
antiviral activity on tested virulent RVFVs (virulent RVFVs): antiviral activity | inhibition of MP12 vaccine and its divergents [1]: inhibited

Cc1nn(-c2ccccc2)c2sc(C(=O)NC(C)C)cc12 [WMA-RV8]
pEC50 (MP12 virus): 4.89 | CC50 (in vitro): > 1280 µM

Cc1ccccc1CN1CCCN(c2cccc(NC(=O)c3cccs3)c2)C1=O [WMA-RV7]
pEC50 (MP12 virus): 4.81 | CC50 (in vitro): > 1280 µM

Cc1ccc(CN2CCCN(c3ccc(NC(=O)c4ccccc4C)cn3)CC2)cc1 [WMA-RV6]
pEC50 (MP12 virus): 5.99 | CC50 (in vitro): 692 µM

CC(Cl)C(=O)N1CCN(c2nccc(-c3ccc(C(C)(C)C)cc3)n2)CC1 (centres unmarked) [WMA-RV4]
pEC50 (MP12 virus): 5.50 | CC50 (in vitro): 168 µM

NC(=O)c1ccc2c(c1)n(Cc1cccc(F)c1)c(=O)c1ccnn12 [WMA-RV2]
pEC50 (MP12 virus): 5.16 | CC50 (in vitro): > 1280 µM

CC(Cl)C(=O)N1CCCN(c2nc3ccccc3nc2-c2ccccc2)CC1 (centres unmarked) [WMA-RV3]
pEC50 (MP12 virus): 5.68 | CC50 (in vitro): 363 µM

O=c1cnn([C@@H]2O[C@H](CO)[C@@H](O)[C@H]2O)c(=O)[nH]1 [Compound 6-azauridine, 6-azauridine]
antiviral activity on tested virulent RVFVs (virulent RVFVs): antiviral activity | inhibition of MP12 vaccine and its divergents [1]: inhibited
